Assay results reported in US20140109520A1, “BEVERAGE FILLING METHOD AND APPARATUS” (DAI NIPPON PRINTING CO., LTD., priority 2008, published 2014).
Like-named read-outs stand apart in the source and are kept apart here.

How the values were obtained:
B. subtilis spore = tested on: B. subtilis spore
Excerpt: Effects attained by the container sterilization method of the present invention will be compared with effects attained by the conventional sterilization method as in the following Table 2.
(§1) In the column “No” in the above Table 2, A1, A2, A3, B1, B2 denotes bottle sample numbers, in which A1, A2 and A3 correspond to the conventional sterilization method, and B1 and B2 correspond to the third embodiment of the present invention mentioned above.
The column “Log Reduction” represents LRV (Logarithmic Reduction Value) as to B. subtilis spore.

[1] = tested on: B. subtilis var. niger ATCC9372
Excerpt: Evaluation method to the measurement was as follows.
Sterilization Effects (Log Reduction)=Log(Number of Adhering Bacteria/Number of Survived Bacteria)
Index Bacteria: B. subtilis var. niger ATCC9372

[2] = tested on: bacteria adhering to the inner surfaces of the preforms; settings: for Number of bacteria adhering on inner surface of preform 10^3: 10^3 bacteria; for Number of bacteria adhering on inner surface of preform 10^4: 10^4 bacteria; for Number of bacteria adhering on inner surface of preform 10^5: 10^5 bacteria
Excerpt: as §1

[3] = for Remaining hydrogen peroxide: 500 mL PET bottle, 30 μL hydrogen peroxide
[4] = bottle sample A1, conventional method, H2O2 mist 50 μL/bottle, H2O2 in air 0.0 mg/L, using amount 170 mL/min
[5] = bottle sample A2, conventional method, H2O2 mist 100 μL/bottle, H2O2 in air 0.0 mg/L, using amount 340 mL/min
[6] = bottle sample B1, third embodiment, H2O2 mist 50 μL/bottle, H2O2 in air 3.3 mg/L, using amount 230 mL/min
[7] = 2 sec from hydrogen peroxide spray to air-rinse
[8] = 5 sec from hydrogen peroxide spray to air-rinse
[9] = bottle sample A2, conventional method, H2O2 mist 100 μL/bottle, H2O2 in air 0.0 mg/L
[10] = bottle sample A3, conventional method, H2O2 mist 150 μL/bottle, H2O2 in air 0.0 mg/L
[11] = bottle sample B1, third embodiment, H2O2 mist 50 μL/bottle, H2O2 in air 3.3 mg/L
[12] = bottle sample B2, third embodiment, H2O2 mist 50 μL/bottle, H2O2 in air 5 mg/L
[13] = 0.5 sec from hydrogen peroxide spray to air-rinse

OO [hydrogen peroxide]
Judgment Sterilization performance (B. subtilis spore; [4]): X (LVR being less than 6) | Log reduction (B. subtilis spore; [4]): <3.4 | Judgment Sterilization performance (B. subtilis spore; [5]): ◯ (shows LRV being 6) | Log reduction (B. subtilis spore; [5]): 6.0 | Log reduction (B. subtilis spore; bottle sample A3, conventional method, H2O2 mist 150 μL/bottle, H2O2 in air 0.0 mg/L, using amount 510 mL/min): >6.0 | Judgment Sterilization performance (B. subtilis spore; [6]): ◯ (shows LRV being 6) | Log reduction (B. subtilis spore; [6]): 6 | Log reduction (B. subtilis spore; bottle sample B2, third embodiment, H2O2 mist 50 μL/bottle, H2O2 in air 5 mg/L, using amount 280 mL/min): >6.0 | sterilization effect LRV (B. subtilis spore; conventional method, hydrogen peroxide of 340 mL/min. to 510 mL/min.): 6 | sterilization effect LRV (B. subtilis spore; method of the present invention, hydrogen peroxide of 230 mL/min. to 260 mL/min.): 6 | Judgment (log reduction) [1, 7]: ∘ | Judgment (log reduction) [1, 8]: ∘ | Number of bacteria adhering on inner surface of preform 10^3 [2, 9]: ◯◯◯ | Number of bacteria adhering on inner surface of preform 10^4 [2, 9]: ◯◯◯ | Number of bacteria adhering on inner surface of preform 10^5 [2, 9]: ◯◯[…] | Number of bacteria adhering on inner surface of preform 10^3 [2, 10]: ◯◯◯ | Number of bacteria adhering on inner surface of preform 10^4 [2, 10]: ◯◯◯ | Number of bacteria adhering on inner surface of preform 10^5 [2, 10]: ◯◯◯ | Number of bacteria adhering on inner surface of preform 10^3 [2, 11]: ◯◯◯ | Number of bacteria adhering on inner surface of preform 10^4 [2, 11]: ◯◯◯ | Number of bacteria adhering on inner surface of preform 10^5 [2, 11]: ◯◯[…] | Number of bacteria adhering on inner surface of preform 10^3 [2, 12]: ◯◯◯ | Number of bacteria adhering on inner surface of preform 10^4 [2, 12]: ◯◯◯ | Number of bacteria adhering on inner surface of preform 10^5 [2, 12]: ◯◯◯ | Judgment (remaining hydrogen peroxide) [3, 13]: ∘ | Remaining hydrogen peroxide [3, 13]: 0.3 ppm | Judgment (remaining hydrogen peroxide) [3, 7]: ∘ | Remaining hydrogen peroxide [3, 8]: 0.9 ppm | density of the hydrogen peroxide adhering to the surface of the bottle (bottle temperature 65° C.): ~80 weight % | density of the hydrogen peroxide adhering to the surface of the bottle (bottle temperature 80° C.): ~90 weight %
